These are literature values, as cited in patent US20130281718A1, “HIGH-FLUIDITY NON-CAKING DIANHYDROHEXITOL PELLETS” (ROQUETTE FRERES, priority 2010, published 2013).

The conditions of this series: addition of 0.005% by weight of butyl cellulose acetate; pressure of 0.23 bar after forming.

As for `CC(C)(CO)CO` [neopentyl glycol], the Time without caking is listed as 30 days.
